Reference: ChEMBL document CHEMBL4257544, “Synthesis and biological evaluation of novel asymmetric naphthalene diimide derivatives as anticancer agents depending on ROS generation” (Medchemcomm, 2018)
The source made the active and inactive calls. The calls are words filed in the database; no cut-off is given here.

What was measured:
SMMC-7721 [1] = assay: Induction of apoptosis in human SMMC7721 cells at 3 uM after 48 hrs by Annexin V/propidium iodide staining based flow cytometry relative to control; format: functional
SMMC-7721 [2] = assay: Antimigratory activity against human SMMC7721 cells at 1 to 3 uM after 24 hrs by crystal violet staining based transwell migration assay; format: functional, cell-based
HepG2 [3] = assay: Antimigratory activity against human HepG2 cells after 24 hrs by scratch wound healing assay; format: functional, cell-based
HepG2 [4] = assay: Cytotoxicity against human HepG2 cells after 48 hrs by MTT assay; format: functional, cell-based; settings: HepG2, 48 h
SMMC-7721 [5] = assay: Induction of apoptosis in human SMMC7721 cells treated at 1 hr post antioxidant alpha-tocopherol addition and measured after 24 hrs by Annexin V/propidium iodide staining based flow cytometry; format: functional, cell-based
HepG2 [6] = assay: Induction of apoptosis in human HepG2 cells after 24 hrs by Annexin V/propidium iodide staining based flow cytometry; format: functional, cell-based
SMMC-7721 [7] = assay: Induction of apoptosis in human SMMC7721 cells assessed as increase in cleaved PARP1 protein expression treated at 1 hr post antioxidant alpha-tocopherol addition and measured after 24 hrs by Western blot analysis; format: functional, cell-based
SMMC-7721 [8] = assay: Antimigratory activity against human SMMC7721 cells after 24 hrs by scratch wound healing assay; format: functional, cell-based
SMMC-7721 [9] = assay: Induction of ROS generation in human SMMC7721 cells at 1 to 3 uM after 24 hrs by DCFH-DA staining based HCS analysis; format: functional, cell-based
SMMC-7721 [10] = assay: Induction of autophagy in human SMMC7721 cells after 24 hrs by MDC staining based HCS analysis; format: functional, cell-based
HepG2 [11] = assay: Cytotoxicity against human HepG2 cells after 24 hrs by MTT assay; format: functional, cell-based; settings: HepG2, 24 h
HepG2 [12] = assay: Cytotoxicity against human HepG2 cells assessed as reduction in cell viability treated at 1 hr post antioxidant alpha-tocopherol addition by MTT assay; format: functional, cell-based
SMMC-7721 [13] = assay: Induction of apoptosis in human SMMC7721 cells after 24 hrs by acridine orange/ethidium bromide and Hoechst 33342 staining based HCS analysis; format: functional, cell-based
HepG2 [14] = assay: Downregulation of beta-catenin protein expression in human HepG2 cells treated at 1 hr post antioxidant alpha-tocopherol addition and measured after 24 hrs by Western blot analysis; format: functional, cell-based
MDA-MB-231 = assay: Cytotoxicity against human MDA-MB-231 cells after 48 hrs by MTT assay; format: functional, cell-based; settings: MDA-MB-231, 48 h
SMMC-7721 [15] = assay: Antimigratory activity against human SMMC7721 cells treated at 1 hr post antioxidant alpha-tocopherol addition and measured after 24 hrs by scratch wound healing assay; format: functional, cell-based
HepG2 [16] = assay: Induction of apoptosis in human HepG2 cells assessed as decrease in Bcl2 protein expression at 1 to 3 uM after 24 hrs by Western blot analysis; format: functional, cell-based
HepG2 [17] = assay: Induction of apoptosis in human HepG2 cells assessed as increase in p53 protein expression treated at 1 hr post antioxidant alpha-tocopherol addition and measured after 24 hrs by Western blot analysis; format: functional, cell-based
SMMC-7721 [18] = assay: Downregulation of beta-catenin protein expression in human SMMC7721 cells treated at 1 hr post antioxidant alpha-tocopherol addition and measured after 24 hrs by Western blot analysis; format: functional, cell-based
SMMC-7721 [19] = assay: Induction of autophagy in human SMMC7721 cells assessed as increase in LC3-2 level by Western blot analysis; format: functional, cell-based
HepG2 [20] = assay: Cytotoxicity against human HepG2 cells assessed as reduction in cell volume after 24 hrs; format: functional, cell-based
HepG2 [21] = assay: Induction of apoptosis in human HepG2 cells assessed as increase in caspase-8 activation at 1 to 3 uM after 24 hrs by Western blot analysis; format: functional, cell-based
[22] = Cytotoxicity against human QSG7701 cells after 48 hrs by MTT assay; format: cell-based; settings: QSG7701, 48 h
SMMC-7721 [23] = assay: Induction of apoptosis in human SMMC7721 cells after 24 hrs by Annexin V/propidium iodide staining based flow cytometry; format: functional, cell-based
HepG2 [24] = assay: Induction of apoptosis in human HepG2 cells at 3 uM after 48 hrs by Annexin V/propidium iodide staining based flow cytometry relative to control; format: functional
SMMC-7721 [25] = assay: Induction of apoptosis in human SMMC7721 cells assessed as increase in p53 protein expression at 1 to 3 uM after 24 hrs by Western blot analysis; format: functional, cell-based
SMMC-7721 [26] = assay: Induction of ROS generation in human SMMC7721 cells at 1 to 3 uM after 24 hrs in presence of antioxidant alpha-tocopherol by DCFH-DA staining based HCS analysis; format: functional, cell-based
SMMC-7721 [27] = assay: Induction of autophagy in human SMMC7721 cells assessed as increase in BECN1 level at 1 to 3 uM by Western blot analysis; format: functional, cell-based
SMMC-7721 [28] = assay: Cytotoxicity against human SMMC7721 cells assessed as cytoplasm shrinkage after 24 hrs; format: functional, cell-based
HepG2 [29] = assay: Cytotoxicity against human HepG2 cells assessed as morphological changes treated at 1 hr post antioxidant alpha-tocopherol addition and measured after 24 hrs; format: functional, cell-based
HepG2 [30] = assay: Induction of ROS generation in human HepG2 cells at 1 to 3 uM after 24 hrs in presence of antioxidant alpha-tocopherol by DCFH-DA staining based HCS analysis; format: functional, cell-based
SMMC-7721 [31] = assay: Downregulation of Akt phosphorylation at […] residue in human SMMC7721 cells at 1 to 3 uM after 24 hrs by Western blot analysis; format: functional, cell-based
SMMC-7721 [32] = assay: Induction of apoptosis in human SMMC7721 cells assessed as increase in cleaved PARP1 protein expression at 1 to 3 uM after 24 hrs by Western blot analysis; format: functional, cell-based
SMMC-7721 [33] = assay: Induction of apoptosis in human SMMC7721 cells assessed as decrease in Bcl2 protein expression at 1 to 3 uM after 24 hrs by Western blot analysis; format: functional, cell-based
SMMC-7721 [34] = assay: Cytotoxicity against human SMMC7721 cells assessed as morphological changes treated at 1 hr post antioxidant alpha-tocopherol addition and measured after 24 hrs; format: functional, cell-based
HepG2 [35] = assay: Induction of apoptosis in human HepG2 cells assessed as increase in cleaved PARP1 protein expression at 1 to 3 uM after 24 hrs by Western blot analysis; format: functional, cell-based
SMMC-7721 [36] = assay: Induction of apoptosis in human SMMC7721 cells assessed as increase in caspase-8 activation at 1 to 3 uM after 24 hrs by Western blot analysis; format: functional, cell-based
SMMC-7721 [37] = assay: Cytotoxicity against human SMMC7721 cells after 24 hrs by MTT assay; format: functional, cell-based; settings: SMMC-7721, 24 h
SMMC-7721 [38] = assay: Cytotoxicity against human SMMC7721 cells assessed as reduction in cell viability in presence of autophagy inhibitor 3-MA by MTT assay; format: functional, cell-based
SMMC-7721 [39] = assay: Induction of autophagy in human SMMC7721 cells assessed as autophagosome formation at 2 uM after 12 hrs by transmission electron microscopic method; format: functional, cell-based
SMMC-7721 [40] = assay: Induction of autophagy in human SMMC7721 cells assessed as vacuolization after 12 hrs; format: functional, cell-based
SMMC-7721 [41] = assay: Cytotoxicity against human SMMC7721 cells assessed as reduction in cell viability treated at 1 hr post antioxidant alpha-tocopherol addition by MTT assay; format: functional, cell-based
HepG2 [42] = assay: Cytotoxicity against human HepG2 cells assessed as cell rounding after 24 hrs; format: functional, cell-based
SMMC-7721 [43] = assay: Induction of apoptosis in human SMMC7721 cells assessed as increase in p53 protein expression treated at 1 hr post antioxidant alpha-tocopherol addition and measured after 24 hrs by Western blot analysis; format: functional, cell-based

## CCCCN1C(=O)c2ccc3c4c(ccc(c24)C1=O)C(=O)N(CCCN(C)C)C3=O
SMMC-7721 [1]
  Activity: 52.1%
SMMC-7721 [2]
  Activity: Active
HepG2 [3]
  Activity: Dose-dependent effect
HepG2 [4]
  IC50: 1.48 µM
SMMC-7721 [5]
  Activity: inactive
HepG2 [6]
  Activity: Dose-dependent effect
SMMC-7721 [7]
  Activity: inactive
SMMC-7721 [8]
  Activity: Dose-dependent effect
SMMC-7721 [9]
  Activity: Active
SMMC-7721 [10]
  Activity: Dose-dependent effect
HepG2 [11]
  IC50: 4.29 µM
HepG2 [12]
  Activity: inactive
SMMC-7721 [13]
  Activity: Dose-dependent effect
HepG2 [14]
  Activity: inactive
MDA-MB-231
  IC50: 5.79 µM
SMMC-7721 [15]
  Activity: inactive
HepG2 [16]
  Activity: Active
HepG2 [17]
  Activity: inactive
SMMC-7721 [18]
  Activity: inactive
SMMC-7721 [19]
  Activity: Dose-dependent effect
HepG2 [20]
  Activity: Active
HepG2 [21]
  Activity: Active
[22]
  IC50: 7.11 µM
SMMC-7721 [23]
  Activity: Dose-dependent effect
HepG2 [24]
  Activity: 67.8%
SMMC-7721 [25]
  Activity: Active
SMMC-7721 [26]
  Activity: inactive
SMMC-7721 [27]
  Activity: Active
SMMC-7721 [28]
  Activity: Active
HepG2 [29]
  Activity: inactive
HepG2 [30]
  Activity: inactive
SMMC-7721 [31]
  Activity: Active
SMMC-7721 [32]
  Activity: Active
SMMC-7721 [33]
  Activity: Active
SMMC-7721 [34]
  Activity: inactive
HepG2 [35]
  Activity: Active
SMMC-7721 [36]
  Activity: Active
SMMC-7721 [37]
  IC50: 5.38 µM
SMMC-7721 [38]
  Activity: inactive
SMMC-7721 [39]
  Activity: Active
SMMC-7721 [40]
  Activity: Active
SMMC-7721 [41]
  Activity: inactive
HepG2 [42]
  Activity: Active
SMMC-7721 [43]
  Activity: inactive
